Assay results: patent US10973822B2, “Combination therapy for treatment of hematological cancers and solid tumors” (Celgene Corporation, priority 2015, dated 2021)

Columns and labels:
[1] = test system: JHH4, a PD-L1 positive HCC cell line; assay: PBMC mediated natural cytotoxicity against JHH4; format: cell-based, human; details: p<0.05, FIG. 6
[2] = test system: anti-CD3/CD28 stimulated PBMCs (NK, NKT, CD4+ and CD8+ T cell); assay: Lymphocyte proliferation assay; format: cell-based, human; details: combination of Compound A with nivolumab, 6 days
Description: To further explore immune activation resulting from the combination of Compound A and nivolumab, proliferation of immune cell subsets including NK, NKT, CD4+ and CD8+ T cell was examined. CellTrace Violet (Thermo Fisher) labeled PBMCs from healthy volunteers were treated with Compound A and nivolumab in combination or as single agent, and stimulated with soluble anti-CD3/CD28 (Stem Cell Technologies) for 6 days. Cells were collected and flow cytometry was performed to assay for surface expression of CD3, CD4, CD8, and CD56 (BD Biosciences). Dead cells were excluded by live/dead fixable stain (ThermoFisher Scientific). Prior to flow cytometry, CountBright beads (Thermo Fisher Scientific) were added to examine changes in absolute cell count.

[3] = test system: CD4+ T cells co-cultured with monocyte-derived DC; assay: Mixed lymphocyte reaction (MLR) assay; format: cell-based, human; details: for IL-2 secretion compared to either single agent: 48 hours
Description: In one exemplary study, monocytes were isolated from buffy coat using Easy Sep kit (StemCell Technologies) and cultured in RPMI supplemented with 10% FBS, IL-4, and GM-CSF for 7 days. On day 7, CD4+ T cells were isolated from leukopak using Easy Sep kit (StemCell Technologies) and co-cultured with Monocyte-derived DC (MDC) using a 10:1 ratio. Secreted IL-2 was quantified by ELISA at 48 hours and IFNγ was measured at 5 days. Throughout the experiment, surface marker expression was determined by flow cytometry. The results are shown in FIG. 3A (IL-2, 10 nM Compound A), FIG. 3B (IL-2, 100 nM Compound A), and FIG. 4A (IFNγ, 100 nM). Compound A in combination with nivolumab enhanced IL-2 and IFNγ secretion in the mixed lymphocyte reaction. In another exemplary study, monocytes were isolated from healthy donor buffy coat (Stem Cell Technologies) and cultured with 500 U/ml IL-4 and 250 U/ml GM-CSF (R&D Systems) for 7 days until the monocytes differentiated into dendritic cells (DC) by culturing with media containing a cocktail of IL-4 and GM-CSF for 7 days. On day 7, CD4^+ T cells from a different healthy donor were isolated from a leukopak (Stem Cell Technologies). The DC and T cells were mixed at a ratio of 1:10 and co-cultured for 5 days with Compound A and nivolumab (obtained from Blue Door Pharma) or anti-PD-L1 (anti-human CD274 (B7-H1) clone 29E.2A3, obtained from BioLegend, Cat #329716, lot B197650). Supernatants were harvested for IL-2 ELISA at 48 hours (R&D Systems) and for IFNγ ELISA at 5 days (Thermo Fisher Scientific). Monocytes, DC, T cells, and mixed lymphocytes were stained for flow cytometric analysis of CD14, HLA-DR, CD80, CD86, CD83, CD40, CD3, PD-1, PD-L1 surface expression markers throughout the duration of the experiment.

[4] = test system: murine liver cancer cell line (BNL-1MEA); assay: Orthotopic HCC (liver cancer) model; format: in vivo, mice; details: Compound A in combination with anti-CTLA-4 antibody; 22 days of treatment; FIG. 1
Description: The effects of Compound A in combination with checkpoint inhibitors were investigated in an orthotopic HCC model. The orthotopic HCC model was established by injecting about 2×10^5 murine liver cancer cell line (BNL-1MEA) cells into the sub-capsular area of the left liver lobe of male BALB/c or SCID mice at age of 6-7 weeks. Mice were randomized to different treatment groups on day 6 after tumor implantation. Tumor volumes were measured after 22 days of treatment with Compound A alone, the checkpoint inhibitor alone, and Compound A in combination with the checkpoint inhibitor by using the following formula: volume [mm^3]=[width]^2×length×0.5. Tumor tissues were cut into small pieces, followed by incubation with HBSS containing collagenase type I (0.05 mg/ml), collagenase type IV (0.05 mg/ml), hyaluronidase (0.025 mg/ml), DNase (0.01 mg/ml) and soybean trypsin inhibitor (1 mg/ml) (all from Sigma-Aldrich) for 15 minutes. TILs were recovered by using Ficoll-Paque gradient and subjected to lymphocyte subpopulations analysis by flow cytometry (FACScan Caliber, Becton Dickinson; data processed by using the […] Software, BD Biosciences Pharmingen). CD4+ T cells, CD8+ T cells, NK cells, or NKT cells were determined by double staining with specific antibodies recognizing murine CD3 (clone 145-2C11), CD4 (cone GK1.5), CD8 (clone 53-6.7), or Pan-NK (clone DX5)(BD Biosciences Pharmingen). […]

[5] = test system: LPS-stimulated hPBMC and human whole blood; assay: Cytokine modulation in LPS-stimulated hPBMC and human whole blood; format: cell-based
Description: TNF-α is an inflammatory cytokine produced by macrophages and monocytes during acute inflammation. TNF-α is responsible for a diverse range of signaling events within cells. TNF-α may play a pathological role in cancer. Without being limited by theory, one of the biological effects exerted by Compound A is the reduction of synthesis of TNF-α. Compound A enhances the degradation of TNF-α mRNA.

SEB-stimulated PBMC = assay: 5 day SEB-stimulated PBMC assay (IL-2 ELISA); format: cell-based, human; details: for IL-2 secretion compared to either single agent: 5 days
Description: In one exemplary study, PBMC cells were pretreated with Compound A for 1 hour, then SEB/CPI were added for 5 days, IL-2 elisa on day 5. The results are shown in FIG. 2A (Compound A in combination with nivolumab), FIG. 2B (Compound A in combination with a surrogate commercial anti-PD-1 antibody from BioLegend), and FIG. 2C (Compound A in combination with a surrogate commercial anti-PD-L1 antibody from BioLegend).
In another exemplary study, Compound A treated PBMCs from healthy donors were stimulated with 10 pg/ml of SEB (ThermoFisher Scientific) followed by addition of nivolumab (obtained from Blue Door Pharma), anti-PD1 (anti-human CD279 clone EH12.2H7, obtained from BioLegend, Cat #329926, lot B194623), and anti-PD-L1 (anti-human CD274 (B7-H1) clone 29E.2A3, obtained from BioLegend, Cat #329716, lot B197650) blocking antibodies. After 5 days of incubation, supernatants were collected and an ELISA for IL-2 (BD Biosciences) was utilized to examine secreted IL-2.

[6] = test system: CD4+ and CD8+ T cells and autologous CLL tumor cells; assay: Immunological synapse bioassay in CLL cells; format: cell-based, human
[7] = test system: acute myeloid leukemia (AML) at relapse; details: administered alone; cited from earlier work
advanced melanoma = details: patients with advanced melanoma; Hodi et al. 2010; cited from earlier work
[8] = test system: DLBCL, FL and T-cell lymphomas; details: monotherapy; cited from earlier work
[9] = Compound A 0.01-1 μM for 24 h, compared to vehicle treated cells, P<0.01
[10] = synapse with PD-L1+ tumor cells

Cc1nc2cccc(N)c2c(=O)n1C1CCC(=O)NC1=O (centres unmarked) [Compound A, 3-(5-amino-2-methyl-4-oxo-4H-quinazolin-3-yl)-piperidine-2,6-dione]
PBMC-mediated cell killing of HCC cell line JHH4 ([1]; 50 nM Compound A combined with 1 μg/ml anti-PD-L1): significantly enhanced | PBMC-mediated cell killing of HCC cell line JHH4 ([1]; 50 nM Compound A combined with 1-10 μg/ml nivolumab): significantly enhanced | proliferation in NK cells (absolute cell numbers) ([2]; FIG. 5A): enhanced proliferation | proliferation in NKT cells (absolute cell numbers) ([2]; FIG. 5B): enhanced proliferation | proliferation in CD4+ T-cells (absolute cell numbers) ([2]; FIG. 5C): but not CD4+ T-cells | proliferation in CD8+ T-cells (absolute cell numbers) ([2]; FIG. 5D): enhanced proliferation | IL-2 secretion ([3]; Compound A (10 nM, 100 nM) in combination with nivolumab, ELISA at 48 hours, FIG. 3A, 3B): enhanced | IFNγ secretion ([3]; Compound A (100 nM) in combination with nivolumab, 5 days, FIG. 4A): enhanced | IL-2 secretion compared to either single agent ([3]; Compound A with anti-PD-L1, synergy at 1-10 μg/ml anti-PD-L1, FIG. 3D): synergistic IL-2 secretion | IFNγ secretion ([3]; Compound A with anti-PD-L1 between 0.1-10 μg/ml, 5 days of co-culture, FIG. 4C): increased synergistically | IFNγ secretion ([3]; Compound A with nivolumab between 0.1-10 μg/ml, 5 days of co-culture, FIG. 4B): increased synergistically | IL-2 secretion compared to either single agent ([3]; Compound A with nivolumab, synergy between 0.01-10 μg/ml nivolumab, FIG. 3C): synergistic IL-2 secretion | anti-tumor efficacy in term of tumor volume [4]: significant synergistic anti-tumor efficacy | IL-1β inhibition [5]: potently inhibits | IL-10 stimulation [5]: stimulates | TNF-α inhibition [5]: markedly inhibits | IL-2 secretion compared to either single agent (SEB-stimulated PBMC; 40 nM Compound A with anti-PD-1 blocking antibody, synergy above 1 μg/ml anti-PD-1, FIG. 2E): synergistic IL-2 secretion | IL-2 secretion compared to either single agent (SEB-stimulated PBMC; 40 nM Compound A with anti-PD-L1 blocking antibody, synergy above 10 μg/ml anti-PD-L1, FIG. 2F): synergistic IL-2 secretion | IL-2 secretion compared to either single agent (SEB-stimulated PBMC; 40 nM Compound A with nivolumab, synergy between 0.1-100 μg/ml nivolumab, FIG. 2D): synergistic IL-2 secretion | IL-2 secretion (SEB-stimulated PBMC; Compound A pretreatment 1 hour, then SEB/CPI (nivolumab, anti-PD-1 or anti-PD-L1) for 5 days, FIG. 2A-2C): synergistically enhanced IL-2 secretion | formation of F-actin immune synapses (area size) [6, 9]: increased | number of T cells recognizing tumor cells (% conjugation formation) [6, 9]: dramatically enhanced | T cell synapse activity compared to immunotherapy alone ([6]; Compound A with anti-CTLA-4 blocking antibody, FIG. 7A): increased T cell synapse activity | T cell synapse activity compared to immunotherapy alone ([6]; Compound A with anti-PD-1 blocking antibody, FIG. 7B): increased T cell synapse activity | T cell synapse activity compared to immunotherapy alone ([6]; Compound A with anti-PD-L1 blocking antibody, FIG. 7C): increased T cell synapse activity | synapse strength (total fluorescence intensity of F-actin per T cell:APC conjugate) ([6]; P<0.01): increased significantly | recruitment of inducible co-stimulator (ICOS) to the synapse ([6]; dose-dependent, P<0.01): increased recruitment | polarized expression of CTLA-4 at the synapse [6, 10]: increased polarized expression | polarized expression of PD-1 at the synapse [6, 10]: increased polarized expression

CT-011: anti-PD-1 antibody, a humanized antibody
response in treating AML at relapse [7]: failed to show response

ipilimumab: fully human monoclonal IgG antibody that binds to CTLA-4
overall survival (advanced melanoma): overall survival benefit

nivolumab: human IgG4 anti-PD-1 monoclonal antibody
antitumor activity [8]: has shown antitumor activity
